Results as given in patent US20240307374A1, “FORMULATION OF FURIN INHIBITOR FOR INHALATION” (BP ASSET V, INC., priority 2021, published 2024).
Converted amounts (≈) assume the structure as drawn. Read-outs that look alike come from different tables or passages of the source. Marks after values point to notes of the source that are not given here.

Columns and labels:
Type in all cases: physicochemical
[1] = Approximate solubility at RT
Description: Four freeform isolation experiments were performed in different solvent with different acids. Solids were obtained in DCM/HCl and CHCl3/HCl system.
Approximately 2 mg solids were added into a 3-mL glass vial. Solvents in the following table were then added stepwise (50-50-200-700[…] for each step) into the vials and stirred until the solids were dissolved or a total volume of 1 mL was reached. The solubility results were used to guide the solvent selection in polymorph formation.

[2] = Solubility of freeform in acetone/H2O systems with various water activities; details: for solubility at 2 days: thermodynamic from solid
Description: To measure the solubility of freeform in acetone/H2O systems with various water activities, the above experiments were re-performed with addition of aw=0.3 acetone/H2O system. The suspension sample was centrifuged to obtain precipitate and supernatants. Solubility was tested for the supernatants after filtration, and isolated precipitate was tested by XRPD.

[3] = Equilibrium solubility in pH buffers (pH 4.0-6.0) with pH adjustment; details: for S: solubility: RT, with pH adjustment
Description: In details, ˜5 mg of solids were suspended into 1 mL of each medium with dosing conc. at ˜5 mg/mL. Additional solids were added into the sample to generate suspension if clear solution was obtained. The suspension was equilibrated via stirring (1000 rpm) for 24 hours. The pH of the suspension was adjusted when the final pH shifted above 0.3, and the samples were stirred for another 1.5 hours after pH adjustment. The suspension was centrifuged to obtain precipitate and supernatants. Solubility, purity and pH were tested for the supernatants after filtration, and isolated precipitate was tested by XRPD.
• 1. pH=3.0 buffer (50 mM HCl+KCl): Weigh 365.39 mg KCl into a 100 mL volumetric flask (VF), and add 0.1 mL 1M HCl into the VF, and dilute to volume with water. • 2. pH=4.0 buffer (50 mM citrate): Weigh 56.74 mg citric acid and 60.18 mg trisodium citrate into a 10 mL volumetric flask, and dilute to volume with water. • 3. pH=5.0 buffer (50 mM citrate) Weigh 11.12 mg citric acid and 95.38 mg trisodium citrate into a 10 mL volumetric flask, and dilute to volume with water. • 4. pH=6.0 buffer (50 mM citrate) Weigh 11.04 mg citric acid and 130.2 mg trisodium citrate into a 10 mL volumetric flask, and dilute to volume with water. • 5. pH=6.0 buffer (50 mM phosphate) Weigh 8.7 mg Na2HPO4 and 52.6 mg NaH2PO4 into a 10 mL volumetric flask, and dilute to volume with water. • 6. pH=7.0 buffer (50 mM phosphate) Weigh 23.47 mg Na2HPO4 and 43.34 mg NaH2PO4into a 10 mL volumetric flask, and dilute to volume with water. • 7. pH=8.0 buffer (50 mM phosphate) Weigh 31.64 mg Na2HPO4 and 67.18 mg NaH2PO4into a 10 mL volumetric flask, and dilute to volume with water.

[4] = DVS (dynamic vapor sorption) moisture uptake; details: for Moisture Uptake (DVS): 25° C., from 0% RH to 80% RH; for form change after DVS test (XRPD): XRPD before and after DVS
Description: (FIG. 5). Sample weight decreased rapidly when humidity decreased from 10% to 0%, which might be caused by loss of crystalline water.
DVS was measured via a SMS (Surface Measurement Systems) DVS Intrinsic.

[5] = Complexation stability constant test: solubility in HPβCD solutions; details: for solubility at 24 h: thermodynamic from solid
Description: Additional solid was added into the sample to generate suspension if clear solution was obtained. The suspension was equilibrated via stirring (1000 rpm) for 24 hours. The suspension was centrifuged to obtain precipitate and supernatants. Solubility and pH was determined for the supernatants after filtration, and XRPD was obtained for the isolated precipitate.

[6] = pH = 4.0 buffer (50 mM citrate)
[7] = pH = 5.0 buffer (50 mM citrate)
[8] = pH = 6.0 buffer (50 mM citrate)
[9] = pH = 6.0 buffer (50 mM phosphate)

For `CC(=O)NCC1CCN(Cc2cc(Oc3ccc(N4CCN(CCC(=O)O)CC4)nc3)nc(-c3cc(Cl)cc(Cl)c3)c2)CC1` [Freeform Type A], the solubility ([1]; 1,4-dioxane, organic solvent or mixture, thermodynamic from solid, 1,4-Dioxane, RT, read-out: Solubility) was less than 1900 µg/mL, the solubility ([1]; 2-MeTHF, organic solvent or mixture, thermodynamic from solid, 2-MeTHF, RT, read-out: Solubility) was less than 1700 µg/mL and the solubility ([1]; ACN, organic solvent or mixture, thermodynamic from solid, ACN, RT, read-out: Solubility) was less than 1900 µg/mL. For the same compound, the solubility ([1]; Anisole, organic solvent or mixture, thermodynamic from solid, Anisole, RT, read-out: Solubility) was less than 2000 µg/mL, the solubility ([1]; CHCl3, RT, solvent for freeform isolation) was “S < 1.2 mg/mL” and the solubility ([1]; CHCl3, organic solvent or mixture, thermodynamic from solid, CHCl3, RT, read-out: Solubility) was less than 2100 µg/mL. The solubility ([1]; CPME, organic solvent or mixture, thermodynamic from solid, CPME, RT, read-out: Solubility) was less than 2000 µg/mL, the solubility ([1]; DCM, organic solvent or mixture, thermodynamic from solid, DCM, RT, read-out: Solubility) was less than 1800 µg/mL and the solubility ([1]; DMSO, organic solvent or mixture, thermodynamic from solid, DMSO, RT, read-out: Solubility) was 17000 to 34000 µg/mL (≈ 26.5 to 53 mM). The solubility ([1]; EtOAc, organic solvent or mixture, thermodynamic from solid, EtOAc, RT, read-out: Solubility) was less than 2000 µg/mL, the solubility ([1]; EtOH, organic solvent or mixture, thermodynamic from solid, EtOH, RT, read-out: Solubility) was 7300 to 22000 µg/mL (≈ 11.4 to 34.3 mM) and the solubility ([1]; IPA, organic solvent or mixture, thermodynamic from solid, IPA, RT, read-out: Solubility) was 1500 to 1800 µg/mL (≈ 2.34 to 2.81 mM). It also gave a solubility ([1]; IPAc, organic solvent or mixture, thermodynamic from solid, IPAc, RT, read-out: Solubility) of less than 1900 µg/mL, a solubility ([1]; MIBK, organic solvent or mixture, thermodynamic from solid, MIBK, RT, read-out: Solubility) of less than 2100 µg/mL and a solubility ([1]; MTBE, organic solvent or mixture, thermodynamic from solid, MTBE, RT, read-out: Solubility) of less than 1900 µg/mL. For the same compound, the solubility ([1]; MeOH, organic solvent or mixture, thermodynamic from solid, MeOH, RT, read-out: Solubility) was greater than 40000 µg/mL, the solubility ([1]; THF, organic solvent or mixture, thermodynamic from solid, THF, RT, read-out: Solubility) was 4000 to 8000 µg/mL (≈ 6.23 to 12.5 mM) and the solubility ([1]; Toluene, organic solvent or mixture, thermodynamic from solid, Toluene, RT, read-out: Solubility) was less than 2100 µg/mL. It also gave a solubility ([1]; acetone, organic solvent or mixture, thermodynamic from solid, Acetone, RT, read-out: Solubility) of less than 1900 µg/mL, a solubility ([1]; n-Heptane, organic solvent or mixture, thermodynamic from solid, n-Heptane, RT, read-out: Solubility) of less than 2200 µg/mL and a solubility ([1]; water, thermodynamic from solid, H2O, RT, read-out: Solubility) of less than 2000 µg/mL. The solubility ([2]; Acetone/H2O (605:395), aw 0.8, RT) was 10.265 (Type A) mg/mL, the solubility at 2 days ([2]; acetone/H2O (605:395), aw 0.8, organic solvent or mixture, Acetone/H2O (605:395), aw 0.8, RT) was 10300 µg/mL (≈ 16.1 mM) and the solubility at 2 days ([2]; acetone/H2O (858:142), aw 0.6, organic solvent or mixture, Acetone/H2O (858:142), aw 0.6, RT) was 3290 µg/mL (≈ 5.12 mM). It also gave a solubility at 2 days ([2]; acetone/H2O (950:50), aw 0.4, organic solvent or mixture, Acetone/H2O (950:50), aw 0.4, RT) of 1160 µg/mL (≈ 1.8 mM), a solubility at 2 days ([2]; acetone/H2O (973:27), aw 0.3, organic solvent or mixture, Acetone/H2O (973:27), aw 0.3, RT) of 1440 µg/mL (≈ 2.24 mM) and a solubility at 2 days ([2]; water (aw 1), water, H2O, aw 1, RT) of 10 µg/mL (≈ 0.0156 mM). The “form change after equilibrium in all media” value ([3]; all media, 24 hours) was “No form change”, the “Area % (purity of supernatant)” value [3, 6] was 99.9 Area % and the “pH (final, after adjustment where adjusted)” value [3, 6] was 4.2*. The “pH before adjustment (in brackets)” value ([3]; pH = 4.0 buffer (50 mM citrate), 24 hours) was “(5.0)”, the “S: solubility” value [3, 6] was >36.9^# mg/mL and the “Area % (purity of supernatant)” value [3, 7] was 99.6 Area %. For the same compound, the “FC: form change (XRPD of precipitate)” value [3, 7] was “N (N: solid form not changed)”, the “pH (final, after adjustment where adjusted)” value [3, 7] was 5.2 and the “S: solubility” value [3, 7] was 3.31 mg/mL. For the same compound, the “Area % (purity of supernatant)” value [3, 8] was 99.6 Area %, the “FC: form change (XRPD of precipitate)” value [3, 8] was “N (N: solid form not changed)” and the “pH (final, after adjustment where adjusted)” value [3, 8] was 6.0. For the same compound, the “S: solubility” value [3, 8] was 0.15 mg/mL, the “Area % (purity of supernatant)” value [3, 9] was 99.3 Area % and the “FC: form change (XRPD of precipitate)” value [3, 9] was “N (N: solid form not changed)”. For the same compound, the “pH (final, after adjustment where adjusted)” value [3, 9] was 6.0, the “S: solubility” value [3, 9] was 0.11 mg/mL and the “Moisture Uptake (DVS)” value [4] was 6.8% (from 0% RH to 80% RH). The “form change after DVS test (XRPD)” value [4] was “No form change”.

In the case of `CC(=O)NCC1CCN(Cc2cc(Oc3ccc(N4CCN(CCC(=O)O)CC4)nc3)nc(-c3cc(Cl)cc(Cl)c3)c2)CC1` [Freeform Type D], the “Moisture Uptake (DVS)” value [4] is reported as 6.3% (from 0% RH to 80% RH), the “form change after DVS test (XRPD)” value [4] is reported as “No form change” and the solubility at 24 h ([5]; 5% (w/w) HPβCD solution, aqueous with cosolvent or surfactant or cyclodextrin, 5% (w/w) HPβCD, RT, 24 hours, final pH 7.3, read-out: Solubility) is reported as 420 µg/mL. For the same compound, the solubility at 24 h ([5]; 5% (w/w) HPβCD solution, pH 7.3, aqueous with cosolvent or surfactant or cyclodextrin, 5% HPβCD (40.78 mmol/L), read-out: API Solubility) was 660 µM, the solubility at 24 h ([5]; 10% (w/w) HPβCD solution, aqueous with cosolvent or surfactant or cyclodextrin, 10% (w/w) HPβCD, RT, 24 hours, final pH 7.2, read-out: Solubility) was 940 µg/mL and the solubility at 24 h ([5]; 10% (w/w) HPβCD solution, pH 7.2, aqueous with cosolvent or surfactant or cyclodextrin, 10% HPβCD (81.56 mmol/L), read-out: API Solubility) was 1470 µM. The solubility at 24 h ([5]; 15% (w/w) HPβCD solution, aqueous with cosolvent or surfactant or cyclodextrin, 15% (w/w) HPβCD, RT, 24 hours, final pH 7.1, read-out: Solubility) was 1420 µg/mL, the solubility at 24 h ([5]; 15% (w/w) HPβCD solution, pH 7.1, aqueous with cosolvent or surfactant or cyclodextrin, 15% HPβCD (122.34 mmol/L), read-out: API Solubility) was 2220 µM and the solubility at 24 h ([5]; 20% (w/w) HPβCD solution, aqueous with cosolvent or surfactant or cyclodextrin, 20% (w/w) HPβCD, RT, 24 hours, final pH 7.0, read-out: Solubility) was 2090 µg/mL. For the same compound, the solubility at 24 h ([5]; 20% (w/w) HPβCD solution, pH 7, aqueous with cosolvent or surfactant or cyclodextrin, 20% HPβCD (163.11 mmol/L), read-out: API Solubility) was 3260 µM, the solubility at 24 h ([5]; 25% (w/w) HPβCD solution, aqueous with cosolvent or surfactant or cyclodextrin, 25% (w/w) HPβCD, RT, 24 hours, final pH 7.0, read-out: Solubility) was 2890 µg/mL and the solubility at 24 h ([5]; 25% (w/w) HPβCD solution, pH 7, aqueous with cosolvent or surfactant or cyclodextrin, 25% HPβCD (203.89 mmol/L), read-out: API Solubility) was 4510 µM. The “form change during solubility evaluation (XRPD)” value ([5]; HPβCD solutions, 24 hours) was “No form change” and the “complexation stability constant K^1:1” value ([5]; HPβCD, Higuchi-Connors phase-solubility method) was 1529 M⁻¹.
